Results published in patent US20130225430A1, “METHODS AND COMPOSITIONS FOR TREATMENT OF TOX-3 AND TFF-1 MEDIATED CANCER PATHOGENESIS” (CEDARS-SINAI MEDICAL CENTER, priority 2012, published 2013).

Assays:
[1] = system: TFF1 gene expression in MCF-7 cells; assay: TFF1 expression by quantitative RT-PCR in MCF-7 cells transfected with TOX3 or vector control; settings: for Effect on TFF1 expression compared to untreated control cells: MCF7 cells, normal culture conditions (not estrogen depleted); for TOX3 induction of TFF1 expression: resistant or sensitive to the drug: TOX3 transfected MCF7 cells, estrogen depleted medium, 36 hours
Experimental: Measurement of TFF1 induction by TOX3. […] MCF7 cells were transfected with a TOX3 expression vector or vector control, switched to estrogen depleted-medium after 8 hours in the presence or absence of the indicated drug, and analyzed by quantitative RT-PCR for TFF1 gene expression after an additional 36 hours in culture.

[2] = system: ERα binding to ERE I, ERE II, and ERE III; settings: reported ER ChIP studies (ref. 46); cited from earlier work

Row | Structure (SMILES) | Effect on TFF1 expression compared to untreated control cells [1] | TOX3 induction of TFF1 expression: resistant or sensitive to the drug [1] | ER binding at ERE I, II, and III sites upstream of TFF1 and TMPRSS3 [2]
1 | C[C@]12CC[C@@H]3c4ccc(O)cc4C[C@@H](CCCCCCCCC[S+]([O-])CCCC(F)(F)C(F)(F)F)[C@H]3[C@@H]1CC[C@@H]2O (stereo partly drawn) [fulvestrant] | decrease | sensitive | residual binding
2 | CC/C(=C(\c1ccccc1)c1ccc(OCCN(C)C)cc1)c1ccccc1 [tamoxifen] | decrease | resistant | residual binding
